Measurements from patent US20080069849A1, “Novel Antimicrobial Peptides” (Dermagen AB, priority 2004, published 2008).

Columns and labels:
Escherichia coli 37.4 = test: Radial diffusion assay (RDA), E. coli 37.4; type: cell-based; details: for RDA (mm) E. coli 37.4 Mean: zone of inhibition
Method: (§1) Escherichia coli 37.4 isolate was originally obtained from a patient with a chronic venous ulcer, while Staphylococcus aureus isolate BD14312 was from a patient with atopic dermatitis. Staphylococcus aureus ATCC29213 and Candida albicans ATCC90028 were both obtained from the Clinical Bacteriology Department at Lund University hospital.
(§2) Essentially as described earlier (Lehrer et al., J Immunol Methods 137, 167-173, 1991, Andersson et al., Eur J Biochem 271, 1219-1226, 2004) bacteria were grown to mid-logarithmic phase in 10 ml of full-strength (3% w/v) trypticase soy broth (TSB) (Becton-Dickinson, Cockeysville, Md.). The microorganisms were then washed once with 10 mM Tris, pH 7.4.4×10^6 bacterial colony forming units were added to 15 ml of the underlay agarose gel, consisting of 0.03% (w/v) TSB, 1% (w/v) low electroendosmosis type (EEO) agarose (Sigma, St Louis Mo.) and 0.02% (v/v) Tween 20 (Sigma). The underlay was poured into a ø 144 mm petri dish. After agarose solidification, 4 mm-diameter wells were punched and 6 μl of test sample was added to each well. Plates were incubated at 37° C. for 3 hours to allow diffusion of the peptides. The underlay gel was then covered with 15 ml of molten overlay (6% TSB and 1% Low-EEO agarose in dH2O). Antimicrobial activity of a peptide is visualized as a zone of clearing around each well after 18-24 hours of incubation at 37° C.

[1] = test system: Staphylococcus aureus isolate BD14312; test: Radial diffusion assay (RDA), S. aureus BD14312; type: cell-based; details: zone of inhibition; mean of three measurements; Table 1
Method: as §1, §2

[2] = test system: Staphylococcus aureus ATCC29213; test: Radial diffusion assay (RDA), S. aureus ATCC29213; type: cell-based; details: zone of inhibition
Method: as §1, §2

[3] = test system: Candida albicans ATCC90028; test: Radial diffusion assay (RDA), Candida ATCC90028; type: cell-based; details: zone of inhibition; mean of three measurements; Table 1
Method: as §1, §2

[4] = Heparin binding on nitrocellulose with radiolabelled heparin; details: unlabelled heparin 6 mg/ml
Method: Peptides were tested for heparin binding activities. Peptides were applied on nitrocellulose membranes (Hybond, Amersham Biosciences). Membranes were blocked (PBS, pH 7.4, 0.25% Tween 20, 3% bovine serum albumin) for one hour and incubated with radiolabelled heparin for one hour in the same buffer. […] The membranes were washed (3×10 min in PBS, pH 7.4, 0.25% Tween 20). A Bas 2000 radio imaging system (Fuji) was used for visualization of radioactivity.

[5] = Binding to lipid bilayers by ellipsometry; details: 10 mM Tris, pH 7.4
Method: (§3) Peptides were tested for binding to lipid bilayers, resulting pore formation and peptide secondary structure in the lipid membranes. Lipid membranes investigated included both zwitterionic ones (containing phosphatidylcholine) and anionic ones (containing mixtures of phosphatidylcholine and phosphatidic acid). Lipid membranes were deposited at silica, and the binding of the peptides from 10 mM Tris, pH 7.4, was directly monitored by ellipsometry. […] Pore formation in these liposomes were determined by including carboxyfluorescein in the liposomes and following the fluorescence intensity increase on addition of peptides to the liposomes. Furthermore, the secondary structure of the peptides in the liposome lipid membranes was probed by circular dichroism.

[6] = Pore formation / carboxyfluorescein leakage of liposomes; details: 10 mM Tris, pH 7.4
Method: as §3

[7] = test system: Pseudomonas aeruginosa 15159; test: Radial diffusion assay (RDA), P. aeruginosa 15159; type: cell-based; details: 100 μM of peptides, n=9
Method: as §2
Based on the criteria defined in EXAMPLE 1 several new variants with increased positive net charge, high helicity and increased amphipathicity were designed and synthesized. In order to rationally test as many different variants as possible a PEP screen library was utilized as described above. […]

[8] = Table 2, second generation PEPscreen

## CC[C@H](C)[C@H](NC(=O)[C@H](CCCCN)NC(=O)[C@H](CCC(=O)O)NC(=O)[C@H](CCCCN)NC(=O)[C@H](CO)NC(=O)[C@H](CCCCN)NC(=O)[C@H](CCCNC(=N)N)NC(=O)[C@H](Cc1ccccc1)NC(=O)[C@H](Cc1ccccc1)NC(=O)[C@H](CC(=O)O)NC(=O)CNC(=O)[C@H](CC(C)C)NC(=O)[C@@H](N)CC(C)C)C(=O)NCC(=O)N[C@@H](CCCCN)C(=O)N[C@@H](CCC(=O)O)C(=O)N[C@@H](Cc1ccccc1)C(=O)N[C@@H](CCCCN)C(=O)N[C@@H](CCCNC(=N)N)C(=O)N[C@H](C(=O)N[C@H](C(=O)N[C@@H](CCC(N)=O)C(=O)N[C@@H](CCCNC(=N)N)C(=O)N[C@H](C(=O)N[C@@H](CCCCN)C(=O)N[C@@H](CC(=O)O)C(=O)N[C@@H](Cc1ccccc1)C(=O)N[C@@H](CC(C)C)C(=O)N[C@@H](CCCNC(=N)N)C(=O)N[C@@H](CC(N)=O)C(=O)N[C@@H](CC(C)C)C(=O)N[C@H](C(=O)N1CCC[C@H]1C(=O)N[C@@H](CCCNC(=N)N)C(=O)N[C@H](C(=O)N[C@@H](CCC(=O)O)C(=O)N[C@@H](CO)C(=O)O)[C@@H](C)O)C(C)C)[C@@H](C)CC)C(C)C)[C@@H](C)CC [LL37, reference compound]
Escherichia coli 37.4; [8]
  RDA (mm) E. coli 37.4 Mean: 5.604 mm
Escherichia coli 37.4; mean of six measurements, Table 1
  RDA (mm) E. coli 37.4 Mean: 3.529 mm
[1]
  RDA (mm) S. aureus BD14312 Mean: 1.285 mm
[2]; [8]
  RDA (mm) S. aureus ATCC29213 Mean: 8.755 mm
[2]; mean of three measurements, Table 1
  RDA (mm) S. aureus ATCC29213 Mean: 2.215 mm
[3]
  RDA (mm) Candida ATCC90028 Mean: 2.43 mm

## CNYITELRRQHARASHLGLAR [CNY21]
Escherichia coli 37.4; 100 μM of peptides, n=9
  RDA mean value, E. coli: 6.02
[4]
  heparin binding, competition by unlabelled heparin: inhibited the binding
[5]
  binding to lipid membranes: binds to zwitterionic and anionic lipid membranes
[6]
  pore formation and leakage of liposomes, order of efficiency: CNY21H-L≈CNY21H-K>CNY21>CNY21H-P≧CNY21 R-S
[7]
  RDA mean value, P. aeruginosa: 5.00

## CNYITELSSQHASASHLGLAR [CNY21R-S]
[5]
  binding to lipid membranes: CNY21 shows a higher binding tendency than CNY21 R-S
[6]
  pore formation and leakage of liposomes, order of efficiency: CNY21H-L≈CNY21H-K>CNY21>CNY21H-P≧CNY21 R-S
